Experimental data reported in patent US20080260637A1, “Methods of Detecting Prostate Cancer” (priority 2004, published 2008).

Tests used:
[1] = test system: prostate cancer tumor areas; experiment: SPECT imaging of excised intact prostate after intravenous Tc^99Sestamibi, compared with whole mount histopathology; format: in vivo, human; details: 25mCi i.v. 1-2 hours prior to prostate excision; ex-vivo SPECT of intact prostate; two patients shown
Experimental: Twelve prostate cancer patients were intravenously administered with 25mCi Tc^99Sestamibi 1-2 hours prior to prostate excision. Intact prostates were excised using surgical procedures (Radical Retro pubic Prostatectomy, Radical Cystectomy or Open Prostatectomy)—illustrated in FIG. 3. The intact prostate was imaged by SPECT using a standard dual head gamma camera (millennium, GE) 6° angular step and 40 sec/step. Imaging results were reviewed using both transaxial (FIGS. 4I-N and FIGS. 5C-D) and coronal views (FIGS. 4O-T and FIG. 5E). The nuclear images were processed automatically. The designated green lines seen in FIGS. 4I-M and 4O-R and 5C and 5E were produced following an automatic search for maximal intensity voxel. Contours were determined at 90% maximal intensity. Following imaging, prostate tissue was sliced transversely from bladder neck (base) to apex. Whole mount histopathology was carried out as described in Example 1.

mitochondria = details: energy dependent manner; cited from earlier work

For `[C-]#[N+]CC(C)(C)OC.[C-]#[N+]CC(C)(C)OC.[C-]#[N+]CC(C)(C)OC.[C-]#[N+]CC(C)(C)OC.[C-]#[N+]CC(C)(C)OC.[C-]#[N+]CC(C)(C)OC.[Tc]` [Tc^99Sestamibi], the “identification of tumor areas by SPECT scanning” value [1] is given as “identified tumor areas as corroborated by whole mount histopathology” and the “fraction of agent taken up by mitochondria” value (mitochondria) is given as “more than 90%”.
